Experimental data taken from patent US9067928B2 (Genentech, Inc., priority 2008, dated 2015).

Tested on: Mcl-1-/- mouse embryonic fibroblasts (MEF)
Test: Cell viability assay for Mcl-1-/- mouse embryonic fibroblasts (CellTiter-Glo)
Type: cell-based
Details: Fibroblast, 1% Fetal Bovine Serum, read-out: MEF Mcl-1-/- KO cell viability results (EC50)
Description: a. Cell Viability Assay for Mcl-1^−/− Mouse Embryonic Fibroblasts (MEF):
Neutralization of both […] and Mcl-1 anti-apoptotic proteins in normal cells is required before a cell undergoes apoptosis via the downstream Bax/Bak pathway See, Chen. L. et al. Mol. Cell (2005) 17, 393-403; Willis, S. N. et al. Genes Dev. (2005) 19, 1294-1305. A compound that only targets Bcl-xL should not affect normal cells, but could kill certain cancer cells if they rely more on Bcl-xL and less on other anti-apoptotic proteins, e.g. Mcl-1, for survival. To mirror this, compounds of the invention were tested for its effect on survival of wild type (wt) mouse embryo fibroblasts (MEFs), Bax/Bak double knockout (BB DKO) MEFs, MEFs that expressed Noxa, and MEFs that expressed Bad. Noxa specifically neutralizes Mcl-1. […] MEFs that express Noxa mirror cancer cell types that are reliant on Bcl-xL for survival and should be much more sensitive to killing by a Bcl-xL targeting compound than MEFs where both Bcl-xL and Mcl-1 are protective.
In this assay, Mcl-1^(−/−) cells were used to confirm that cell apoptosis in the presence of BH3 mimetic small molecules was due to predominantly Bcl-xL inactivation. This inactivation leaves Bax/Bak unconstrained and results in apoptosis. The […]-GLO Luminescent Cell Viability Assay is a homogeneous method of determining the number of viable cells in culture based on quantitation of the ATP present. The amount of ATP correlates with the presence of metabolically active cells such that following cell lysis the amount of ATP present is proportional to the amount of luminescence measured.
Mcl-1^(−/−) mouse embryonic fibroblasts (MEFs) are an adherent cell line prepared in house. MEFs were grown in Iwaki 75 cm^2 tissue culture flasks (cat #3123-075) with FMA media which consists of: • 89% DME Kelso • 10% heat-inactivated foetal calf serum (FCS) (Hyclone cat #SH30396.03) • 1% 10 mM asparagine (Fluka cat #11149) • 275 μl of a 1:2000 dilution of 2-mercaptoethanol is added to the final 500 ml volume of FMA (Sigma cat #M7522; diluted in MT-PBS)
FMA was stored at 4° C. and used at 37° C. MEFs were cultured in FMA media and harvested in MT-PBS and trypsin. For MEF cell viability assays, cells were seeded separately in plates with 10% FCS-FMA and 1% FCS-FMA. […]
Automated Systems that can be used in this assay include: 1) Multidrop—The MULTIDROP 384 (ThermoLabsystems) dispenser was used to dispense cells aseptically into the assay plates: 2) MiniTrak—The […] system from Perkin Elmer was used for titration of the compound plates; 3) Zymark—The ZYMARK SCICLONE ALH3000 System with 100 nL pintool head was used for compound addition to the cells; 4) EnVision—The ENVISION plate reader was used to measure the viability via the detection of the luminescence. […]

Molecule `O=C(O)c1nc(-c2ccc3c(c2)N(C(=O)Nc2nc4ccccc4s2)CCC3)sc1-c1ccc(-c2ccccc2)cc1` [Example 92, 2-(1-(benzo[d]thiazol-2-ylcarbamoyl)-1,2,3,4-tetrahydroquinolin-7-yl)-5-(biphenyl-4-yl)thiazole-4-carboxylic acid] has an EC50 of 150 nM.
